Reference: US20250369974A1, “METHOD FOR MONITORING AND PREVENTING CLINICALLY SIGNIFICANT KETONE LEVELS IN PATIENTS RECEIVING DICHLOROACETATE CO-ADMINISTERED WITH A CARBOHYDRATE RESTRICTED DIET” (SAOL INTERNATIONAL DEVELOPMENT LTD., priority 2024, published 2025)
Like-named read-outs stand apart in the source and are kept apart here.

Assays:
[1] = system: patients with Pyruvate Dehydrogenase Complex Deficiency (PDCD); assay: Plasma BHB (ketone) levels in Phase III study of DCA in PDCD patients; assay type: in vivo, human
Experimental: (§1) A total of 30 (of the 34) patients in the Phase III study in PDCD patients had lab values that could be evaluated throughout the study. Of these 30, 24 were defined to be adherent to a ketogenic diet based on their BHB level at baseline to be >0.3 mM.
(§2) A double-blind period (Phase A) and an open label period (Phase B) was performed in patients 6 months through 17 years of age with Pyruvate Dehydrogenase Complex Deficiency (PDCD) (n=34). Patients receiving DCA were dose-stratified according to GSTZ1 genotype. DCA was dosed orally (oral, nasogastric tube, or gastric tube route) at either 12.5 mg/kg (fast metabolizers) or 6.25 mg/kg (slow metabolizers), every 12 hours. Twenty-seven (27) of 34 patients (79%), were fast metabolizers. […]

[2] = system: patients with Pyruvate Dehydrogenase Complex Deficiency (PDCD); assay: Plasma lactate levels in Phase III study of DCA in PDCD patients; assay type: in vivo, human
Experimental: as §1, §2
Plasma lactate levels were evaluated as a key biomarker in PDCD. Lactate is a universal marker of disease activity in PDCD, and its elevation is a direct result of the fundamental metabolic deficit. Patients with PDCD have chronically elevated levels of lactate due to decreased PDC activity. Lowering of plasma lactate with use of DCA is considered a biomarker of its activation of PDC.

[3] = system: patients with Pyruvate Dehydrogenase Complex Deficiency (PDCD); assay: Phase III double-blind, placebo-controlled crossover study with open label period: ObsROmotor, GHA, seizures, observer survey; assay type: in vivo, human
Experimental: A double-blind period (Phase A) and an open label period (Phase B) was performed in patients 6 months through 17 years of age with Pyruvate Dehydrogenase Complex Deficiency (PDCD) (n=34). Patients receiving DCA were dose-stratified according to GSTZ1 genotype. DCA was dosed orally (oral, nasogastric tube, or gastric tube route) at either 12.5 mg/kg (fast metabolizers) or 6.25 mg/kg (slow metabolizers), every 12 hours. Twenty-seven (27) of 34 patients (79%), were fast metabolizers.
The drug product is a clear, colorless solution.
The primary efficacy outcome was assessed using an observer reported outcome that measures motor function, referred to as the ObsROmotor. The ObsROmotor is a daily observer reported survey that assesses weakness, incoordination, hypotonia (low muscle tone), hypertonia (rigidity, stiff muscle tone), and involuntary movements. Each domain was scored from 0 to 4, where 0 is no presence of the symptom, 1 is mild, 2 is moderate, 3 is severe and 4 extreme, with a total score ranging from 0 to 20.
PDCD is a heterogenous disease with neurologic, metabolic and structural abnormalities. An observer rated Global Health Assessment (GHA) was also used to assess the overall health of the patient in addition to ObsROmotor. GHA was measured each week to assess the prior 7 days using a 5-point scale (much better, better, no change, worse, much worse). GHA scores improved over time and the scores were correlated with ObsROmotor.

[4] = system: pediatric patients with PDCD; assay: Survival study of DCA-treated patients versus untreated natural history cohort; assay type: in vivo, human; conditions: primary endpoint, matched on age and sex; n=28 vs n=28; p=0.0273
Experimental: Efficacy was assessed in a second study by comparing overall survival in pediatric patients with PDCD treated with DCA (n=28) with an untreated natural history cohort of pediatric patients with genetically confirmed PDCD (n=28).

[5] = system: pediatric patients with PDCD; assay: Adverse reaction data of Phase III study and open-label extension; assay type: in vivo, human
Experimental: In the Phase III study, the safety of DCA was assessed in 34 pediatric patients with PDCD aged 6 months to 17 years. Patients receiving DCA were dose-stratified post-randomization according to GSTZ1 genotype to mitigate risk of peripheral neuropathy. DCA was dosed at either 12.5 mg/kg or 6.25 mg/kg divided into two equal doses approximately 12 hours apart. The dose based on GSTZ1 genotyping was done at baseline before patients initiated therapy. As noted above, this Phase III controlled study was followed by an ongoing, open-label extension study, used to assess long term safety and survival outcomes.
In the open-label extension study, patients were treated for up to 3 years (median: 1.4 years) with DCA. The adverse events observed during the open-label phase of the study were similar to those observed in the double-blind portion of the study. During the open label portion of the trial there was a report of mild peripheral neuropathy in one patient who later withdrew from the study for a family relocation. This occurred after 18 months and was considered possibly drug related. DCA induced peripheral neuropathy has been identified as reversible upon therapy discontinuation.

GSTZ1 haplotype carriers = conditions: cited from earlier work
[6] = Patient 01-001, DCA Open Label 1, keto ratio 4.0:1
[7] = Patient 01-001, DCA Open Label 2, keto ratio 4.0:1
[8] = Patient 01-001, DCA Open Label 3, keto ratio 4.0:1
[9] = Patient 01-001, DCA period, keto ratio 3.1:1
[10] = Patient 03-001, DCA Open Label 1, keto ratio Not Recorded
[11] = Patient 03-001, DCA Open Label 2, keto ratio 3.2:1
[12] = Patient 03-001, DCA Open Label 3, keto ratio 3.1:1
[13] = Patient 03-001, DCA period, keto ratio 4.0:1
[14] = Patient 07-003-S, DCA Open Label 1, keto ratio 0.7:1
[15] = Patient 07-003-S, DCA period, keto ratio 3.0:1
[16] = of the 24 patients adherent to the ketogenic diet
[17] = Phase III, all patients, p=0.006
[18] = severe patients (N=15), domain outside of motor function

Compound: O=C(O)C(Cl)Cl [DCA, Dichloroacetate]
- average BHB level while on DCA ([1]; 9 patients without BHB increase, 2.04 mM not on DCA): 1.8 mM
- measures that exceeded 3.0 mM BHB while on DCA ([1]; 9 patients without BHB increase, 38% not on DCA): 24%
- average BHB level while on DCA ([1]; 15 patients that experienced an increase, 2.19 mM not on DCA): 3.27 mM
- measurements with clinically significant BHB (>3.0 mM) while on DCA ([1]; 15 patients that experienced an increase, 13% not on DCA): 62%
- increase in average BHB level ([1]; 15 patients that experienced an increase, on DCA vs not on DCA): 49%
- BHB [1, 6]: 3.19 mM
- BHB [1, 7]: 2.74 mM
- BHB [1, 8]: 4.08 mM
- BHB [1, 9]: 6.36 mM
- BHB [1, 10]: 4.41 mM
- BHB [1, 11]: 2.76 mM
- BHB [1, 12]: 2.06 mM
- BHB [1, 13]: 4.21 mM
- BHB [1, 14]: 2.38 mM
- BHB [1, 15]: 4.02 mM
- increase in the number of patients with BHB levels of 3.0 mM or higher ([1]; group experiencing increases in BHB): ~5 fold
- BHB levels greater than 4.0 while on DCA ([1]; group experiencing increases in BHB, 3% while not on DCA): 28%
- patients that did not experience a rise in ketone levels after administration of DCA [1, 16]: Nine
- patients with a rise in ketone levels after administration of DCA [1, 16]: 15
- drop in lactate ([2]; 9 patients without BHB increase): 11%
- percentage of patients with normal lactate levels (2.0 mM or less) while on DCA ([2]; 9 patients without BHB increase, 51% not on DCA): 71%
- drop in lactate levels while on DCA ([2]; 15 patients with BHB increase): 20%
- percentage of patients with normal lactate levels (2.0 mM or less) while on DCA ([2]; 15 patients with BHB increase, 33% not on DCA): 73%
- Lactate [2, 6]: 1.58 mM
- Lactate [2, 7]: 2.13 mM
- Lactate [2, 8]: 1.33 mM
- Lactate [2, 9]: 1.4 mM
- Lactate [2, 10]: 1.36 mM
- Lactate [2, 11]: 1.16 mM
- Lactate [2, 12]: 1.41 mM
- Lactate [2, 13]: 1.25 mM
- Lactate [2, 14]: 0.68 mM
- Lactate [2, 15]: 1.99 mM
- difference in plasma lactate, DCA vs. placebo [2, 17]: -0.477 mM
- reduction in plasma lactate levels, DCA vs. placebo [2, 17]: 21%
- patients achieving lactate normalization while on DCA therapy ([2]; in both groups (with and without BHB increase)): > 70%
- patients on DCA achieving normal levels (≤2mmol/L) of lactate ([2]; vs. 42% on placebo, P=0.0114): 66%
- patients maintaining stable disease or achieving clinically meaningful improvement (>20% reduction in ObsROmotor) ([3]; open label extension, of 34 patients): 24
- survey respondents noting improvement in cognition, verbal communication, mobility, and/or endurance ([3]; open-label office visits, 25 of the 26 respondents): 96.2%
- observers rating patients with a GHA as better or much better ([3]; open-label portion): > 80%
- patients showing improvement in motor function in at least one of the five domains ([3]; patients with more severe impairment at baseline (N=15)): 93%
- improvement of motor function in the ObsROmotor scale vs. placebo ([3]; patients with more severe impairment at baseline (N=15), p=0.066): −1.12
- number of severe patients improving: hypertonia ([3]; severe patients (N=15)): 6
- number of severe patients improving: hypotonia ([3]; severe patients (N=15)): 8
- number of severe patients improving: incoordination ([3]; severe patients (N=15)): 6
- number of severe patients improving: involuntary movement ([3]; severe patients (N=15)): 6
- number of severe patients improving: weakness ([3]; severe patients (N=15)): 6
- number of severe patients improving: fatigue [3, 18]: 7
- number of severe patients improving: sleep [3, 18]: 8
- multivariate risk reduction in the relative risk of death vs untreated patients [4]: 99%
- Balance disorder ([5]; DCA (N = 34)): 1 (2.9) n (%)
- Bruxism ([5]; DCA (N = 34)): 0 n (%)
- Constipation ([5]; DCA (N = 34)): 1 (2.9) n (%)
- Diarrhea ([5]; DCA (N = 34)): 1 (2.9) n (%)
- Fatigue ([5]; DCA (N = 34)): 1 (2.9) n (%)
- Flatulence ([5]; DCA (N = 34)): 0 n (%)
- Gastrointestinal disorders (SOC) ([5]; DCA (N = 34)): 2 (5.9) n (%)
- General disorders and administration site conditions (SOC) ([5]; DCA (N = 34)): 1 (2.9) n (%)
- Insomnia ([5]; DCA (N = 34)): 0 n (%)
- Irritability ([5]; DCA (N = 34)): 0 n (%)
- Muscular weakness ([5]; DCA (N = 34)): 1 (2.9) n (%)
- Musculoskeletal and connective tissue disorders (SOC) ([5]; DCA (N = 34)): 1 (2.9) n (%)
- Nervous system disorders (SOC) ([5]; DCA (N = 34)): 1 (2.9) n (%)
- Psychiatric disorders (SOC) ([5]; DCA (N = 34)): 0 n (%)
- Salivary hypersecretion ([5]; DCA (N = 34)): 0 n (%)
- Skin and subcutaneous tissue disorders (SOC) ([5]; DCA (N = 34)): 1 (2.9) n (%)
- Syncope ([5]; DCA (N = 34)): 1 (2.9) n (%)
- Tremor ([5]; DCA (N = 34)): 1 (2.9) n (%)
- Urticaria ([5]; DCA (N = 34)): 1 (2.9) n (%)
- deaths ([5]; Phase III, 34 pediatric patients): no deaths
- most commonly reported adverse reaction: gastrointestinal disorders ([5]; n=2 of 34 DCA-treated patients): 5.9%
- patients with report of mild peripheral neuropathy ([5]; open label portion, after 18 months, considered possibly drug related): one
- risk of peripheral neuropathy adverse events (GSTZ1 haplotype carriers; EGT carriers (fast metabolizers), 25 mg/kg/day): low risk
- risk of peripheral neuropathy adverse events (GSTZ1 haplotype carriers; EGT non-carriers (slow metabolizers), 12.5 mg/kg/day): experience the same
